Results: PubChem BioAssay (NCI)
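Test compounds were applied to cells in 96-well plates for 48 hours at 5 doses. At the GI50, growth is halved. TGI: concentration producing complete growth inhibition.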

Experiments:
Assay in all cases: NCI-60 cell line screen, 48 h
[1] = test system: A549 NSCLC
[2] = test system: ACHN renal
[3] = test system: IGROV1 ovarian
[4] = test system: M14 melanoma
[5] = test system: RXF 393 renal
[6] = test system: SF-268 CNS
[7] = test system: SK-MEL-5 melanoma
[8] = test system: SN12C renal
[9] = test system: TK-10 renal
[10] = test system: U251 CNS

| Structure (SMILES) | GI50 [1] [nM] | TGI [1] [µM] | GI50 [2] [nM] | TGI [2] [µM] | GI50 [3] [nM] | TGI [3] [µM] | GI50 [4] [nM] | TGI [4] [µM] | GI50 [5] [nM] | TGI [5] [µM] | GI50 [6] [µM] | TGI [6] [µM] | GI50 [7] [nM] | TGI [7] [µM] | GI50 [8] [nM] | TGI [8] [µM] | GI50 [9] [µM] | TGI [9] [µM] | GI50 [10] [nM] | TGI [10] [µM] |
| --- | --- | --- | --- | --- | --- | --- | --- | --- | --- | --- | --- | --- | --- | --- | --- | --- | --- | --- | --- | --- |
| CCCCCCCC[N+](C)(CCCCCCCC)CCCCCCCC | 1360 | 3.08 | 427 | 1.46 | 347 | 1.91 | 388 | 1.63 | 390 | 1.49 | 0.441 | 1.53 | 178 | 0.344 | 337 | 1.24 | 0.352 | 1.19 | 324 | 1.31 |
| NS(=O)(=O)c1ccc(N2N=C3c4ccccc4CC3C2c2ccc(Cl)cc2)cc1 (centres undefined) | 10800 | 34 | 17500 | 31.6 | 3480 | 19.6 | 10100 | 36.1 | 5070 | 19.7 | 22.1 | 54 | 2300 | 5.85 | 6750 | 25.6 | 8.32 | 27.3 | 20200 | 42.5 |
| Cc1ccccc1C(C#N)C(=O)C(=O)Nc1cccc(Cl)c1 (centres undefined) |  | > 100 |  | > 100 |  | > 100 |  | > 100 |  | > 100 |  | > 100 |  | > 100 |  | > 100 |  | > 100 |  | > 100 |
| COc1ccc(/C=C2\CCC(C)(CN(C)C)C2=O)cc1 (centres undefined) |  | > 100 |  | > 100 |  | > 100 |  | > 100 |  | > 100 |  | > 100 |  | > 100 |  | > 100 |  | > 100 |  | > 100 |
| CC1=C(C(=O)NCc2ccccc2)C(c2ccccc2[N+](=O)[O-])C(C(=O)NCc2ccccc2)=C(C)N1 |  | 68.1 |  | 27.4 |  | 40.9 |  | 23.9 |  | 23.4 |  | 22.9 |  | 25.9 |  | 27.4 |  | 31.4 |  | 22.8 |
| CC(C)(C)C(=O)C1CC(=O)c2ccccc2C1=O (centres undefined) |  | > 100 |  | > 100 |  | > 100 |  | > 100 |  | 80.6 |  | 69.7 |  | 72.8 |  | > 100 |  | > 100 |  | 99.7 |
| COc1ccc(NC(=O)c2sc3nc(C)c(C(O)c4ccccc4)cc3c2N)cc1 (centres undefined) | 700 | > 100 | 4090 | > 100 | 3630 | > 100 | 2520 | 38.3 | 2250 | 49.1 | 4.06 | > 100 | 1660 | 4.04 | 3360 | > 100 | 5.39 | > 100 | 3580 | > 100 |
| COC(=O)C1=C(C(=O)OC)C23C=C(C)C1C2=C(C)C1(CC1)[C@@](C)(O)C3=O (some centres undefined) | 255 | 0.858 | 416 | > 100 | 275 |  | 316 | 1.46 | 179 | 0.341 | 0.273 | 3.07 | 164 | 0.314 | 435 | 13.3 | 1.35 | 11.3 | 311 | > 42.8 |
| Cc1ccc(S(=O)(=O)N2CCc3ccc(O)c4c3C2Cc2cc(Cl)ccc2-4)cc1 (centres undefined) | 1160 | 5.44 | 2060 | 23.5 | 1350 | 5.86 | 880 | 2.96 | 830 | 2.49 | 2.47 | 9.72 | 1550 | 5.1 | 1780 | 7.42 | 2.18 | 13.1 | 972 | 3.77 |
| COc1ccc(/C(C)=N/OC(=O)c2c(-c3ccccc3Cl)noc2C)cc1CN1CCOCC1 |  | 50.9 |  | 32.8 |  | 65.6 |  | 28 |  | 77.8 |  | > 100 |  | 31.8 |  | 51.3 |  | > 100 |  | 97.7 |
| CCOC(=O)c1sc(=S)c2c(C(=O)OCC)c(C(=O)OCC)sc2c1C(=O)OCC | 16400 | 42.8 | 16600 | 39.4 | 13400 | 29.8 | 16800 | 32.6 | 13000 | 39.4 | 16.4 | 33.9 | 16400 | 32.9 | 11200 | 26.7 | 5.85 | 39.4 | 12700 | 26.5 |
| C[C@@]12CCC(=O)C=C1CC[C@H]1C2=CC[C@]2(C)C1CC[C@@]2(C)O (some centres undefined) |  | > 100 |  | > 100 |  | > 100 |  | > 100 |  | > 100 |  | > 100 |  | > 100 |  | > 100 |  | > 100 |  | > 100 |
| COc1ccc(C(c2c(O)c3ccccc3n(C)c2=O)c2c(O)c3ccccc3n(C)c2=O)cc1 |  | > 100 |  | > 100 |  | > 100 |  | > 100 |  | > 100 |  | > 100 |  | 54.6 |  | > 100 |  | > 100 |  | 44.2 |
| COc1ccc(-c2nc(-c3nc4ccc(OC)cc4[nH]3)cc3c2[nH]c2ccccc23)cc1 | 1920 | > 100 | 2330 | > 100 | 2830 | > 100 | 3340 | > 100 | 2770 | > 100 | 4.9 | > 100 | 2180 | > 100 | 3490 | > 100 | 3.14 | > 100 | 2890 | > 100 |
| N.N.NCCCCN.O=C([O-])C1(C(=O)[O-])CCC1.O=C([O-])C1(C(=O)[O-])CCC1.[Pt+4].[Pt+4] | > 100000 | > 100 | > 100000 | > 100 | > 100000 | > 100 | > 100000 | > 100 | > 100000 | > 100 | 97.4 | > 100 | > 100000 | > 100 | 63800 | > 100 | > 100 | > 100 | > 100000 | > 100 |
| Cc1ccc(Cl)c(NC(=O)C(=O)C(C(=O)c2ccncc2)C2OC(=O)c3ccccc32)c1 (centres undefined) |  | > 100 |  | > 100 |  | > 100 |  | > 100 |  | > 100 |  | > 100 |  | > 100 |  | > 100 |  | > 100 |  | > 100 |
| CCOC(=O)c1sc(Nc2ccc(Cl)cc2)nc1C | 2170 | 5.45 | 1680 | 3.88 | 1520 | 4.26 | 1560 | 3.32 | 2110 | 4.75 | 1.72 | 3.7 | 1440 | 2.76 | 1750 | 4.81 | 2.42 | 5.08 | 1960 | 4.3 |
| COC(=O)C1=C(CO)C2C=CC1C2 (centres undefined) |  | > 100 |  | > 100 |  | > 100 |  | > 100 |  | > 100 |  | > 100 |  | > 100 |  | > 100 |  | > 100 |  | > 100 |
| CCOC(=O)c1cn(Cc2ccccc2)c(=O)n1Cc1ccccc1 |  | > 100 |  | > 100 |  | > 100 |  | > 100 |  | > 100 |  | > 100 |  | > 100 |  | > 100 |  | > 100 |  | > 100 |
| O=C1CCC2(CC1)SCCCS2 |  | > 100 |  | > 100 |  | > 100 |  | > 100 |  | > 100 |  | > 100 |  | > 100 |  | > 100 |  | > 100 |  | > 100 |
| COc1cc(C(=O)c2cc3c(cc2C)OCO3)cc(OC)c1OC | 125 | > 100 | 289 | > 100 | 371 | > 100 | 67.1 | > 100 | 51.5 | > 100 | 0.36 | > 100 | 45.4 | 1.74 | 289 | > 100 | 34.2 | > 100 | 158 | > 100 |
| COc1ccc2c(c1)CC[C@@H]1[C@@H]2CC[C@]2(C)C(c3ccco3)=C(C=O)C[C@@H]12 | 26100 | 65.1 | 3560 | 13.5 | 27000 | 78 | 5240 | 30.5 | 484 | 27.6 | 13.6 | > 100 | 5720 | 19 | 23100 | 95.2 | 4.93 | 21.2 | 4130 | 18.1 |
| COc1ccc(/C=C/c2n[nH]c3ccc(N4CCOC4=O)cc23)cc1 | 1660 | 14.2 | 2640 | 23.2 | 2530 | > 100 | 1880 | 10.5 | 1870 | 3.8 | 3.64 | > 100 | 2150 | 5.66 | 2140 | > 100 | 3.12 | 26.2 | 2510 | > 100 |
